The target in one experiment is T1, Human Calpain 1/NS1 (Homo sapiens, UniProt P07384).
T1 sequence (P07384 1-714): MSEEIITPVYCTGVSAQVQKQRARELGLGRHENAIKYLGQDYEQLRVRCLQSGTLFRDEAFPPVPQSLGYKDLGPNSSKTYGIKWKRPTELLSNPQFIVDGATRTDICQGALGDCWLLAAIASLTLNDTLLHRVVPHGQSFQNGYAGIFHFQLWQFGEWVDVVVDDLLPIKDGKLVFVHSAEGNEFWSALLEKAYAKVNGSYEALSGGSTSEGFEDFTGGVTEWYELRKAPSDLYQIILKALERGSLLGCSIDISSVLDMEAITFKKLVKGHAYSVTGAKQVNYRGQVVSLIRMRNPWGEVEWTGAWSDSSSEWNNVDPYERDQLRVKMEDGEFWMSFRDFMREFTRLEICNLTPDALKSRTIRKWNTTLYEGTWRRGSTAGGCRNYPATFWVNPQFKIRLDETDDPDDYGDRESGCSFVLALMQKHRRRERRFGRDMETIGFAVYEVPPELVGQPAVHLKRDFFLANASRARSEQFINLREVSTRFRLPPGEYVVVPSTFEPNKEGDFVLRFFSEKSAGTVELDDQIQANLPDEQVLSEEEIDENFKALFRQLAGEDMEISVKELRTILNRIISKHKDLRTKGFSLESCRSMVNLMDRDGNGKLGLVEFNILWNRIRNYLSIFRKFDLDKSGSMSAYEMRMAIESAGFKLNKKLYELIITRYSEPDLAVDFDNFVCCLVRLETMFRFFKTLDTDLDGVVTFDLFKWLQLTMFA
T1 sequence (P04632 1-268 partner): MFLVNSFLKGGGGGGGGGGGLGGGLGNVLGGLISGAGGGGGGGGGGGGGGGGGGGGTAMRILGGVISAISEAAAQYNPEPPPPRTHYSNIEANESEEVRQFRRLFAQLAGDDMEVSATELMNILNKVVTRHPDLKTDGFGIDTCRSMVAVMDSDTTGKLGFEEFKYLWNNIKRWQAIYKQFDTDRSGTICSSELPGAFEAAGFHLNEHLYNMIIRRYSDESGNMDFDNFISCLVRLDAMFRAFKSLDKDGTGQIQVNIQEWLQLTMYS
As to the kind of experiment: Calpain inhibition continuous fluorescence (FRET) assay, Human Calpain 1/NS1. Format: biochemical. Particulars: Column A; read-out: Human Calpain 1/NS1 IC50. The gist of the method:
(§1)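 Continuous FRET read (ex 490/em 520 nm, 10 min) of calpain 1, 2 or 9 cleaving an internally quenched 5-FAM peptide, triggered by substrate with CaCl2 after enzyme–inhibitor incubation at ambient 25 °C, pH 7.5 Tris/NaCl/DTT buffer. IC50 from initial rates (1-5 min) via 4-parameter fit.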

Experiment [1] has as its system Calpain activity in SH-SY5Y cells (SBDP-150). In words: SH-SY5Y Spectrin western blot assay (SBDP-150 breakdown product, A23187-induced). Format: cell-based. Particulars: Homo sapiens; Column D; SH-SY5Y cells, A23187-induced SBDP-150; read-out: SH-SY5Y Spectrin IC50.
The next experiment addresses T2, Human Calpain 2/NS1 (Homo sapiens, UniProt P17655).
T2 sequence (P17655 1-700): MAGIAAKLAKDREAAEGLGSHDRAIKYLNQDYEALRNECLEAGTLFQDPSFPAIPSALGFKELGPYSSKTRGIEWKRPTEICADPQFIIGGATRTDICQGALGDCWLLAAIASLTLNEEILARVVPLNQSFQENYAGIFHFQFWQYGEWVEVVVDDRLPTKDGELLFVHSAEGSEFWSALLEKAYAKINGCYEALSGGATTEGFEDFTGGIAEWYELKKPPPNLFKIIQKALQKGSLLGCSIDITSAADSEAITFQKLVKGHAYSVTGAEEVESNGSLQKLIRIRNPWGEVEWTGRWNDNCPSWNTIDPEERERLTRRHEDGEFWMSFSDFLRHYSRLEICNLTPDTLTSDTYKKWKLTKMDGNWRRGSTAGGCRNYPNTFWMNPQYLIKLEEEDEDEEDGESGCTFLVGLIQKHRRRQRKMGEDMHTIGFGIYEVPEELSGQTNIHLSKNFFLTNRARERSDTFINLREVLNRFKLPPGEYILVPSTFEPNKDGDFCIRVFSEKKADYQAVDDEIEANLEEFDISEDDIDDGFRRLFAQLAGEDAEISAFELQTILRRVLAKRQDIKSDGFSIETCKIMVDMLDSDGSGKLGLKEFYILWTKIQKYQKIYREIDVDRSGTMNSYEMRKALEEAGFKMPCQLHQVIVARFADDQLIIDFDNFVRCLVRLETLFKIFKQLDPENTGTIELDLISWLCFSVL
T2 sequence (P04632 1-268 partner): T1 sequence (P04632 1-268 partner)
As to the kind of experiment: Calpain inhibition continuous fluorescence (FRET) assay, Human Calpain 2/NS1. In kind it is biochemical. As to conditions: Column B; read-out: Human Calpain 2/NS1 IC50. Summed up: as §1

Another experiment deals with T3, Human Calpain 9/NS1 (Homo sapiens, UniProt O14815).
T3 sequence (O14815 1-690): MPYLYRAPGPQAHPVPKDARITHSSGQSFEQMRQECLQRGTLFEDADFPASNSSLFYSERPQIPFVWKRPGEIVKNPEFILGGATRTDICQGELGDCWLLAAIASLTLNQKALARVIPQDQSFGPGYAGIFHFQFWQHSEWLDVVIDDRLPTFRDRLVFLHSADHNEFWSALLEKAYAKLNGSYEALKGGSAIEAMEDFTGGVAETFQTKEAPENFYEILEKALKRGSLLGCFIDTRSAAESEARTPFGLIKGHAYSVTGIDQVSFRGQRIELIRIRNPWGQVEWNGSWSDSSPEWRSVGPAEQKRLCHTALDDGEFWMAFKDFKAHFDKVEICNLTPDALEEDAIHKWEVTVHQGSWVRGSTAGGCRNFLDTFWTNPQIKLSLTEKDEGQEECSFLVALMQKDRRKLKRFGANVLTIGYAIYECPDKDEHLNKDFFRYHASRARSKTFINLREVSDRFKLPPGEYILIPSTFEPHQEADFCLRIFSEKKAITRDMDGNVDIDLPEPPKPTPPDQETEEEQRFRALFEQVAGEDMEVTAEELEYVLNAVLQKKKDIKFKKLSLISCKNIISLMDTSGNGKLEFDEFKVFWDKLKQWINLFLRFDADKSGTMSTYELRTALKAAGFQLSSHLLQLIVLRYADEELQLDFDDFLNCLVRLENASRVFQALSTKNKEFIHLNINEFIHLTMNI
T3 sequence (P04632 1-268 partner): T1 sequence (P04632 1-268 partner)
As to the kind of experiment: Calpain inhibition continuous fluorescence (FRET) assay, Human Calpain 9/NS1. Particulars: Column C; read-out: Human Calpain 9/NS1 IC50. In kind it is biochemical. The gist of the method:
as §1

Experiment [2] has as its system Calpain activity in SH-SY5Y cells. In words: SH-SY5Y + AMC fluorescence assay (Suc-LLVY-AMC substrate). As to conditions: Column E, read-out: SH-SY5Y + AMC IC50. Format: cell-based.

As for `NC(=O)C(=O)[C@H](Cc1ccccc1)NC(=O)c1cncn1-c1ccccn1` [Compound 24, (S)—N-(4-amino-3,4-dioxo-1-phenylbutan-2-yl)-1-(pyridin-2-yl)-1H-imidazole-5-carboxamide], the IC50 at Human Calpain 1/NS1 is less than 3 µM; in experiment [1], more than 25 µM; at Human Calpain 2/NS1 it was less than 3 µM; at Human Calpain 9/NS1, less than 3 µM; in experiment [2], more than 25 µM.
Regarding `Cc1nc(-c2ccccc2)c(C(=O)N[C@@H](Cc2ccccc2)C(=O)C(N)=O)o1` [Compound 26, (S)—N-(4-amino-3,4-dioxo-1-phenylbutan-2-yl)-2-methyl-4-phenyloxazole-5-carboxamide], the IC50 was less than 3 µM on Human Calpain 1/NS1; less than 10 µM in experiment [1]; less than 3 µM on Human Calpain 2/NS1; less than 3 µM at Human Calpain 9/NS1; less than 10 µM in experiment [2].
With `Cc1onc(-c2ccccc2)c1C(=O)N[C@@H](Cc1ccccc1)C(=O)C(N)=O` [Compound 27, (S)—N-(4-amino-3,4-dioxo-1-phenylbutan-2-yl)-5-methyl-3-phenylisoxazole-4-carboxamide], the IC50 on Human Calpain 1/NS1 is less than 3 µM; in experiment [1] it was 10 to 25 µM; at Human Calpain 2/NS1, less than 3 µM; on Human Calpain 9/NS1 it was less than 3 µM; in experiment [2], more than 25 µM.
As for `NC(=O)C(=O)[C@H](Cc1ccccc1)NC(=O)c1nnsc1-c1ccccc1` [Compound 28, (S)—N-(4-amino-3,4-dioxo-1-phenylbutan-2-yl)-5-phenyl-1,2,3-thiadiazole-4-carboxamide], the IC50 at Human Calpain 1/NS1 is less than 3 µM; in experiment [1], less than 10 µM; on Human Calpain 2/NS1, less than 3 µM; on Human Calpain 9/NS1 it was less than 3 µM; in experiment [2], less than 10 µM.
For `NC(=O)C(=O)[C@H](Cc1ccccc1)NC(=O)c1c[nH]nc1-c1ccccc1` [Compound 30, (S)—N-(4-amino-3,4-dioxo-1-phenylbutan-2-yl)-3-phenyl-1H-pyrazole-4-carboxamide], the IC50 on Human Calpain 1/NS1 was less than 3 µM; in experiment [1] it was less than 10 µM; on Human Calpain 2/NS1 it was less than 3 µM; on Human Calpain 9/NS1, less than 3 µM; in experiment [2], 10 to 25 µM.
Turning to `CCc1cc(C(=O)N[C@@H](Cc2ccccc2)C(=O)C(N)=O)n(-c2ccccc2)n1` [Compound 33, (S)—N-(4-amino-3,4-dioxo-1-phenylbutan-2-yl)-3-ethyl-1-phenyl-1H-pyrazole-5-carboxamide], the IC50 at Human Calpain 1/NS1 is less than 3 µM; in experiment [1] it was less than 10 µM; at Human Calpain 2/NS1, less than 3 µM; at Human Calpain 9/NS1, less than 3 µM; in experiment [2], less than 10 µM.
For the compound `Cn1ncc(C(=O)N[C@@H](Cc2ccccc2)C(=O)C(N)=O)c1-c1ccccc1` [Compound 45, (S)—N-(4-amino-3,4-dioxo-1-phenylbutan-2-yl)-1-methyl-5-phenyl-1H-pyrazole-4-carboxamide], the IC50 on Human Calpain 1/NS1 is less than 3 µM; in experiment [1], more than 25 µM; at Human Calpain 2/NS1, less than 3 µM; at Human Calpain 9/NS1, less than 3 µM; in experiment [2], 10 to 25 µM.
Take `Cc1cc(C(=O)N[C@@H](Cc2ccccc2)C(=O)C(N)=O)n(-c2ncccn2)n1` [Compound 49, (S)—N-(4-amino-3,4-dioxo-1-phenylbutan-2-yl)-3-methyl-1-(pyrimidin-2-yl)-1H-pyrazole-5-carboxamide]: the IC50 on Human Calpain 1/NS1 is less than 3 µM; in experiment [1] it was less than 10 µM; on Human Calpain 2/NS1, less than 3 µM; on Human Calpain 9/NS1, less than 3 µM; in experiment [2], less than 10 µM.
As for `NC(=O)C(=O)[C@H](Cc1ccccc1)NC(=O)c1cncn1-c1nc2ccccc2s1` [Compound 50, (S)—N-(4-amino-3,4-dioxo-1-phenylbutan-2-yl)-1-(benzo[d]thiazol-2-yl)-1H-imidazole-5-carboxamide], the IC50 at Human Calpain 1/NS1 is less than 3 µM; in experiment [1] it was less than 10 µM; at Human Calpain 2/NS1 it was less than 3 µM; at Human Calpain 9/NS1, less than 3 µM; in experiment [2], more than 25 µM.
For the compound `Cc1nnn(-c2ccccc2)c1C(=O)N[C@@H](Cc1ccccc1)C(=O)C(N)=O` [Compound 55, (S)—N-(4-amino-3,4-dioxo-1-phenylbutan-2-yl)-4-methyl-1-phenyl-1H-1,2,3-triazole-5-carboxamide], the IC50 is less than 3 µM at Human Calpain 1/NS1; less than 10 µM in experiment [1]; less than 3 µM at Human Calpain 2/NS1; less than 3 µM at Human Calpain 9/NS1; more than 25 µM in experiment [2].
For the compound `Cc1noc(-c2ccccc2)c1C(=O)N[C@@H](Cc1c[nH]c2ccccc12)C(=O)C(N)=O` [Compound 57, (S)—N-(4-amino-1-(1H-indol-3-yl)-3,4-dioxobutan-2-yl)-3-methyl-5-phenylisoxazole-4-carboxamide], the IC50 at Human Calpain 1/NS1 is less than 3 µM; in experiment [1] it was less than 10 µM; at Human Calpain 2/NS1 it was less than 3 µM; on Human Calpain 9/NS1, less than 3 µM; in experiment [2], 10 to 25 µM.
In the case of `Cc1noc(-c2ccccc2)c1C(=O)N[C@@H](Cc1ccc(F)cc1)C(=O)C(N)=O` [Compound 58], the IC50 was less than 3 µM at Human Calpain 1/NS1; 10 to 25 µM in experiment [1]; less than 3 µM on Human Calpain 2/NS1; less than 3 µM on Human Calpain 9/NS1; more than 25 µM in experiment [2].
For `Cc1cc(C(=O)N[C@@H](Cc2ccccc2)C(=O)C(N)=O)n(-c2cnccn2)n1` [Compound 63, (S)—N-(4-amino-3,4-dioxo-1-phenylbutan-2-yl)-3-methyl-1-(pyrazin-2-yl)-1H-pyrazole-5-carboxamide], the IC50 is less than 3 µM at Human Calpain 1/NS1; less than 10 µM in experiment [1]; less than 3 µM on Human Calpain 2/NS1; less than 3 µM at Human Calpain 9/NS1; less than 10 µM in experiment [2].

The record behind these values is patent publication US11339130B1 (Blade Therapeutics, Inc., priority 2016, dated 2022).
